These compounds were tested on Hepatitis B virus (assay: Antiviral activity against HBV in human HepDE19 cells producing HBV cccDNA assessed as reduction in cccDNA production by measuring HBeAg level incubated for 24 hrs by ELISA). Conditions: HepDE19, 24 h.
Format: functional, organism-based

How did the IC50 turn out when COc1c(-c2cc(=O)c3cccc(Cl)c3o2)ccc(Br)c1OC1CC(C(=O)O)C1 (stereo unspecified) was run?
The IC50 was 190 nM.

Which IC50 does the source give for O=C(O)COc1cc(-c2cc(=O)c3cccc(Cl)c3o2)ccc1C(F)(F)F here?
Its IC50 is 320 nM.

With O=C(O)CCOc1cc(-c2cc(=O)c3cccc(Cl)c3o2)c(F)cc1Br as the compound, how does the IC50 read?
Its IC50 is 133 nM.

CCOc1cc(Br)c(OCCC(=O)O)cc1-c1cc(=O)c2cccc(Cl)c2o1 was tested. Which IC50 did it give?
The IC50 was 110 nM.

Cc1ccc(-c2cc(=O)c3cccc(Cl)c3o2)cc1O[C@H]1C[C@@H](C(=O)O)C1 was tested. Which IC50 did it give?
The IC50 was 490 nM.

Which IC50 does the source give for COc1cc(OC)c(-c2cc(=O)c3cccc(Cl)c3o2)cc1OCCOC1CC(C(=O)O)C1 (stereo unspecified) here?
The IC50 was 190 nM.
